Each structure is given as a SMILES string.

This experiment deals with T1, BRD4-BD1 (Homo sapiens, UniProt O60885).
T1 construct: 15 nM GST-BRD4-BD1 protein (aa 44-168)
Briefly: BRD4-H4 tetraacetylated peptide inhibition AlphaScreen. Format: binding. Conditions: 15 nM GST-BRD4-BD1 (aa 44-168), 15 nM biotinylated Acetyl-Histone H4 (Lys5, 8, 12, 16) peptide, 30 min at RT. How it is done: Biological Methods BRD4-H4 Tetraacetylated Peptide Inhibition AlphaScreen
Compounds are diluted in serial dilution 1:5 in assay buffer from 10 mM stock in DMSO (100 μM start concentration) in white OptiPlate-384 (PerkinElmer). A mix consisting of 15 nM GST-BRD4-BD1 protein (aa 44-168) or 150 nM GST-BRD4-BD2 (aa 333-460) and 15 nM biotinylated Acetyl-Histone H4 (Lys5, 8, 12, 16) peptide is prepared in assay buffer (50 mM HEPES pH=7.4; 25 mM NaCl; 0.05% Tween 20; 0.1% bovine serum albumin (BSA); 10 mM dithiothreitol (DTT)). 6 μl of the mix is added to the compound dilutions. Subsequently, 6 μl of premixed AlphaLISA Glutathione Acceptor Beads and AlphaScreen Streptavidin Donor Beads from PerkinElmer (in assay buffer at a concentration of 10 μg/ml each) are added and the samples are incubated for 30 min at RT in the dark (shaking 300 rpm). Afterwards, the signal is measured in a PerkinElmer Envision HTS Multilabel Reader using the AlphaScreen protocol from PerkinElmer.
Each plate contains negative controls where biotinylated Acetyl-Histone H4 peptide and GST-BRD4-BD1 or GST-BRD4-BD2 are left out and replaced by assay buffer. Negative control values are entered as low basis value when using the software GraphPad Prism for calculations. Furthermore, a positive control (probe molecule JQ1+ with protein/peptide mix) is pipetted. Determination of IC50 values are carried out using GraphPad Prism 3.03 software (or updates thereof).
For `COC[C@H](C)n1c(-c2cc(C)c(=O)n(C)c2)nc2cc3c(cc21)N(C)C(=O)C3(C)C` [I-1, 2-(1,5-Dimethyl-6-oxo-1,6-dihydro-pyridin-3-yl)-3-((S)-2-methoxy-1-methyl-ethyl)-5,7,7-trimethyl-5,7-dihydro-3H-imidazo[4,5-f]indol-6-one], inhibition was half-maximal at 50 nM (IC50).
Next, `Cc1cc(-c2nc3cc4c(cc3n2[C@@H](C)c2ccccc2)N(C(C)C)C(=O)C4(C)C)cn(C)c1=O` [I-2, 2-(1,5-Dimethyl-6-oxo-1,6-dihydro-pyridin-3-yl)-5-isopropyl-7,7-dimethyl-3-((S)-1-phenyl-ethyl)-5,7-dihydro-3H-imidazo[4,5-f]indol-6-one]: 3 nM; `Cc1cc(-c2nc3cc4c(cc3n2Cc2ccccn2)N(C)C(=O)C4(C)C)cn(C)c1=O` [I-3]: 44 nM.
Next, `COC[C@H](C)n1c(-c2cc(C)c(=O)n(C)c2)nc2cc3c(cc21)N(C(C)C)C(=O)C3(C)C` [I-4]: 22 nM.
As for `Cc1nc(-c2nc3cc4c(cc3n2[C@@H](C)c2ccccc2)N(C(C)C)C(=O)C4(C)C)cn(C)c1=O` [I-5], the IC50 (commonly the concentration that gives 50% inhibition) was 9 nM.
Take `Cc1nc(-c2nc3cc4c(cc3n2[C@@H](C)c2ccccc2)N(C)C(=O)C4(C)C)cn(C)c1=O` [I-6]: the IC50 turned out to be 15 nM.
Next, `Cc1cc(-c2nc3cc4c(cc3n2[C@@H](C)c2ccccc2)N(C)C(=O)C4(C)C)cn(C)c1=O` [I-7]: 4 nM; `CCN1C(=O)C(C)(C)c2cc3nc(-c4cc(C)c(=O)n(C)c4)n([C@@H](C)c4ccccc4)c3cc21` [I-8]: 2 nM.
Next, `Cc1cc(-c2nc3cc4c(cc3n2[C@@H](C)c2ccccc2)N(C(C)C)C(=O)C42CC2)cn(C)c1=O` [I-9]: 17 nM.
For `Cc1cc(-c2nc3cc4c(cc3n2[C@@H](C)c2ccccc2)C(=O)N(C)C4(C)C)cn(C)c1=O` [II-1] the value was 13 nM; for `Cc1cc(-c2nc3cc4c(C)nn(C)c4cc3n2[C@@H](C)c2ccccc2)cn(C)c1=O` [III-1], 5 nM; for `CCn1nc(C)c2cc3nc(-c4cc(C)c(=O)n(C)c4)n([C@@H](C)c4ccccc4)c3cc21` [III-2], 8 nM.
As to `CCc1nn(C)c2cc3c(cc12)nc(-c1cc(C)c(=O)n(C)c1)n3[C@@H](C)c1ccccc1` [III-3], half-maximal inhibition (IC50) was put at 9 nM. The IC50 values of the last two molecules are within 1.5-fold of each other.
